Measured values taken from ChEMBL document CHEMBL3352232, “Discovery of pyridyl sulfonamide 11-beta-hydroxysteroid dehydrogenase type 1 (11β-HSD1) inhibitors for the treatment of metabolic disorders” (Bioorg Med Chem Lett, 2014).
Converted amounts (≈) assume the structure as drawn.

Legend:
[1] = target: 11-beta-hydroxysteroid dehydrogenase 1 (Homo sapiens, UniProt P28845); assay: Inhibition of human 11-betaHSD1 by biochemical assay
[2] = Aqueous solubility of the compound; type: physicochemical
[3] = Stability in human liver microsomes assessed as compound remaining after 10 mins; type: ADME; conditions: read-out: Stability
[4] = Stability in rat liver microsomes assessed as compound remaining after 10 mins; type: ADME; conditions: read-out: Stability
[5] = Stability in mouse liver microsomes assessed as compound remaining after 10 mins; type: ADME; conditions: read-out: Stability
[6] = target: 11-beta-hydroxysteroid dehydrogenase 1 (Mus musculus, UniProt P50172); assay: Inhibition of mouse 11-betaHSD1 by biochemical assay
11-beta-hydroxysteroid dehydrogenase 1 (Mus musculus, UniProt P50172), sequence (P50172 whole entry): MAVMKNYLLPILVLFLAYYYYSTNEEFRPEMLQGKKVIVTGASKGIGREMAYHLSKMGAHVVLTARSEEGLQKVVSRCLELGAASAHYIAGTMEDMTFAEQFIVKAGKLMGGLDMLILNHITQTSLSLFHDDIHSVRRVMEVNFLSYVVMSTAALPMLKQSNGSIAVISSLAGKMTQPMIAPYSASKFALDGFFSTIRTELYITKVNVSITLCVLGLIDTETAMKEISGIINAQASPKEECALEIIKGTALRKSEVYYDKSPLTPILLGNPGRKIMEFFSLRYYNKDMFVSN

11-beta-hydroxysteroid dehydrogenase 1 (Homo sapiens, UniProt P28845), sequence (P28845 whole entry): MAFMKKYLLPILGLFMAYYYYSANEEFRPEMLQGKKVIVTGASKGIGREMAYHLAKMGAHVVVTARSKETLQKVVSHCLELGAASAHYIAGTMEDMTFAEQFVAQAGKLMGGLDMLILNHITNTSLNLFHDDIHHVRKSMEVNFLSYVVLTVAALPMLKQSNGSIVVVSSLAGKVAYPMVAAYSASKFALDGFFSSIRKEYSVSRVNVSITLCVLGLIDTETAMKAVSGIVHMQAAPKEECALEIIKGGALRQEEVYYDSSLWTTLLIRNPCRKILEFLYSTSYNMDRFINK

Row | Structure (SMILES) | IC50 [1] [nM] | solubility [2] [µg/mL] | remaining at 10 min [3] [%] | remaining at 10 min [4] [%] | remaining at 10 min [5] [%] | IC50 [6]
1 | CC1CCN(C(=O)c2ccc(CSc3ccc(Cl)cc3)cc2)CC1 | 160 |  |  |  |  | 
2 | CC1CCN(S(=O)(=O)c2cccc(-c3ccc(Cl)cc3)n2)CC1 | 55 | 1 (≈ 2.85 µM) |  |  |  | 
3 | N#Cc1ccc(-c2cccc(S(=O)(=O)N3CCC(N4CCCC4)CC3)n2)cc1 | 980 | 270 (≈ 681 µM) |  |  |  | 
4 | CC1CCN(S(=O)(=O)c2cccc(-c3cccc(Cl)c3)n2)CC1 | 310 | 1 (≈ 2.85 µM) |  |  |  | 
5 | N#Cc1ccc(-c2cccc(S(=O)(=O)N3CCC(N4CCOCC4)C3)n2)cc1 (centres undefined) | 160 | 14 (≈ 35.1 µM) |  |  |  | 

These reach a lower IC50 [1]. Values come first.

Row | IC50 [1] [nM] | solubility [2] [µg/mL] | remaining at 10 min [3] [%] | remaining at 10 min [4] [%] | remaining at 10 min [5] [%] | IC50 [6] | Structure (SMILES)
6 | 30 | 48 (≈ 124 µM) | 62 | 4 | 7 | Not Active | O=S(=O)(c1cccc(-c2ccccc2)n1)N1CCC(N2CCOCC2)CC1
7 | 9 | < 1 |  |  |  |  | N#Cc1ccc(-c2cccc(S(=O)(=O)N3CCC(C4CCCCC4)CC3)n2)cc1
8 | 49 | 2 (≈ 5.86 µM) |  |  |  |  | CC1CCN(S(=O)(=O)c2cccc(-c3ccc(C#N)cc3)n2)CC1
